# ChEMBL document CHEMBL1201862, “PubChem BioAssay data set” (2004)
# Calls of active or inactive are those of the source.
# Legend:
# [1] = target: T1, Oxysterols receptor LXR-beta (Homo sapiens, UniProt P55055); format: functional, cell-based;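 further: Cell-based luminescence dose-response assay of agonist activity at LXR, run as a confirmatory counterscreen to a daf-12 agonist screen; HEK293 cells with Gal4-LXR fusion and GAL4-driven luciferase reporter; agonist potency from rising luciferase signal of a Gal4-LXR reporter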
# T1 sequence (P55055 whole entry): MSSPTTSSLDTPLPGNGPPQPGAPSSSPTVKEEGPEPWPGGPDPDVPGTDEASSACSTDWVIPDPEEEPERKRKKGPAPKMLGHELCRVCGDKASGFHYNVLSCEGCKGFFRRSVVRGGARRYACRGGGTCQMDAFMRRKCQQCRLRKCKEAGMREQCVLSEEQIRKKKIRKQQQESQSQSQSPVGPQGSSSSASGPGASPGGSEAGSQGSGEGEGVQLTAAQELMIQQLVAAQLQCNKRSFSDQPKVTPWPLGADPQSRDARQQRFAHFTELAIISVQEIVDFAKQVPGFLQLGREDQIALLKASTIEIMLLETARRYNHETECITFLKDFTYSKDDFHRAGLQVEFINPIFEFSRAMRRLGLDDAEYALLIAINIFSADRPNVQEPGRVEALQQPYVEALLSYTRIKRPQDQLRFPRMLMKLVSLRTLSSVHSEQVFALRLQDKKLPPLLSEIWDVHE
# Streptococcus = assay: Group A Streptococcus viability loss, dose response, counter-screen for streptokinase expression inhibitor project, luminescence, BacTiterGlo (AID 1915); format: functional, organism-based;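 further: potency for reduction of bacterial viability or growth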
# [2] = Jurkat T cell cytotoxicity, dose response, cytotoxicity control for P. falciparum gametocyte viability project, luminescence (AID 1117277); format: functional, cell-based;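 further: potency reflects loss of cellular ATP meaning fewer viable cells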
# [3] = P. falciparum late gametocyte killing, dose response, luminescence (AID 1117278); format: functional, cell-based;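 further: gametocytes exposed to compound for 24 hours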
# Streptokinase A = target: T2, Streptokinase A (Streptococcus pyogenes serotype M1, UniProt P10520); assay: S. pyogenes streptokinase expression inhibitors, potency, dose response, plasminogen activation absorbance, OD405 (AID 1914); format: functional, Streptococcus pyogenes M1 GAS;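 further: secreted streptokinase activity via plasminogen activation per viability signal from cell pellet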
# T2 sequence (P10520 whole entry): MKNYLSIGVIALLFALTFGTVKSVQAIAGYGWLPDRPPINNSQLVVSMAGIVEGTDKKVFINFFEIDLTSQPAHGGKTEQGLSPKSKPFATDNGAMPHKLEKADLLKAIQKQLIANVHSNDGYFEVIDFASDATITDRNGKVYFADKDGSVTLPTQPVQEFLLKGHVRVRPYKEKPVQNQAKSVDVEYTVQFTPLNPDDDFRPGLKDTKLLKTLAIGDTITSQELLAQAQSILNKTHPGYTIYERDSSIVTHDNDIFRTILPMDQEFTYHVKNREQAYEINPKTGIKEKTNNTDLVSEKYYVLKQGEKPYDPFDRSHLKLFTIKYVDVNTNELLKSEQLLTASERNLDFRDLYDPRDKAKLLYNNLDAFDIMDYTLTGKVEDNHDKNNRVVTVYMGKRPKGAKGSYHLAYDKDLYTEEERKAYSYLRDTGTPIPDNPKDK
# [4] = tested on: Streptococcus sp. 'group A'; assay: growth inhibition of control SK(-) GAS strain, dose response, counter-screen for streptokinase expression inhibitor project, luminescence, kanamycin, BacTiterGlo, confirmation (AID 1900); format: functional, organism-based
# [5] = inhibitors of PGC1a acetylation in cells, dose response, cell-based, cherry-picked samples (AID 720514); format: functional;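 further: potency may reflect raised or lowered acetylation signal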
# Paired box protein Pax-8 = Paired box protein Pax-8 (Homo sapiens, UniProt Q06710); assay: inhibitors of PAX8-driven TPO luciferase reporter, dose response, RMG-I cells, cherry-pick (AID 687027); format: functional, cell-based;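 further: luciferase reporter driven by Pax8 target thyroperoxidase promoter measured by SteadyGlo luminescence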
# [6] = NIH:OVCAR-3 ovarian cancer cell cytotoxicity, dose response, PAX8 inhibitor project, plate reader, dry powder samples (AID 743044); format: functional, cell-based
# [7] = cytotoxicity in OVCAR8 ovarian cancer cells, dose response, PAX8 project, cell-based, plate reader, dry powder samples (AID 743197); format: functional; settings: OVCAR-8
# Kallikrein-7 = Kallikrein-7 (Homo sapiens, UniProt P49862); assay: Fluorescence Intensity-based biochemical primary high throughput dose response assay to identify activators of kallikrein-7 (K7) zymogen.
# [8] = target: G-protein coupled receptor 183 (Homo sapiens, UniProt P32249); assay: SAR confirmation of small molecule antagonists of the EBI2 receptor via a luminescent beta-arrestin assa.; format: functional
# [9] = P. falciparum Dd2 growth inhibitors, dose response, SYBR Green, dry powder samples, set 9 (AID 1159568); format: functional, cell-based
# Caspase-3 = target: T3, Caspase-3 (Homo sapiens, UniProt P42574); format: functional;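 further: Dose-response selectivity test against caspase-3 for candidate inhibitors of sentrin-specific proteases (SENPs)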
# T3 sequence (P42574 whole entry): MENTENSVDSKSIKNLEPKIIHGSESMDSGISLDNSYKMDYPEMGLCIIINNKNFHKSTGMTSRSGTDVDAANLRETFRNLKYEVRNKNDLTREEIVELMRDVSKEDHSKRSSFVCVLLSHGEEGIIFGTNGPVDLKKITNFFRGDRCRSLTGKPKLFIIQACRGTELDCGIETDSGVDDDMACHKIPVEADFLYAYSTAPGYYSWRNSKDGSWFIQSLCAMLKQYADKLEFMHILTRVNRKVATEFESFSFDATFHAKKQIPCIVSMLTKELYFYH
# [10] = target: T4, Sentrin-specific protease 7 (Homo sapiens, UniProt Q9BQF6); format: functional;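 further: Luminescence-based dose-response confirmation of ultra-high-throughput screening hits, measuring inhibition of SENP7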
# T4 sequence (Q9BQF6 whole entry): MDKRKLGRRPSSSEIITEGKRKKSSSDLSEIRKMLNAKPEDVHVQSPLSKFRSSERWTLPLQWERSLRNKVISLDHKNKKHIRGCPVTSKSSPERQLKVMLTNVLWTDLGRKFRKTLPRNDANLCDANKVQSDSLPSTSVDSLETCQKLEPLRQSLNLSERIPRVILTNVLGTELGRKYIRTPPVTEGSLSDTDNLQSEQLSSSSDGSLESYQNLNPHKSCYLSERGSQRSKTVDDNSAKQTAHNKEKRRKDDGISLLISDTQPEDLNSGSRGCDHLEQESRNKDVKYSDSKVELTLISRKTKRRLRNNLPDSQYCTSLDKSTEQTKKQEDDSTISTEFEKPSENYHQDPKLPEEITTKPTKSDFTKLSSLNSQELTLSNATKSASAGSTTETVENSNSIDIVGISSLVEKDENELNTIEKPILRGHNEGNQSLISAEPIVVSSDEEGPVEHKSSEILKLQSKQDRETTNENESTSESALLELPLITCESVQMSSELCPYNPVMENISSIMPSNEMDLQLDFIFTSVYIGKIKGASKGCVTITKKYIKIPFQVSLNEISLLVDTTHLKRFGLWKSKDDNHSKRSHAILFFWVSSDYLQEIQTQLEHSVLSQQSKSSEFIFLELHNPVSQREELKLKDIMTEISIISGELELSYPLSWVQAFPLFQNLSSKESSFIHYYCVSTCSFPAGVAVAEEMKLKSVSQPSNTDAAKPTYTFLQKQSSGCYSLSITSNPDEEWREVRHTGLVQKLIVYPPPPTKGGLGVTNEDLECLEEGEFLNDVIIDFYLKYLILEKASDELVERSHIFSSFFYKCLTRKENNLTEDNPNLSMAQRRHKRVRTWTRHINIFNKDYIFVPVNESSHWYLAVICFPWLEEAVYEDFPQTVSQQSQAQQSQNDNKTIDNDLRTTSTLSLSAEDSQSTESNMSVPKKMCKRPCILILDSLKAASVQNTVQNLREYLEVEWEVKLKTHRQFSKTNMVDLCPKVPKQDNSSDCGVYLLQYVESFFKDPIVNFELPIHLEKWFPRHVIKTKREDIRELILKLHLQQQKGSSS
# [11] = target: T5, Sentrin-specific protease 6 (Homo sapiens, UniProt Q9GZR1); format: functional;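 further: Luminescence-based dose-response confirmatory assay of SENP6 inhibition, following up an ultra-high-throughput screen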
# T5 sequence (Q9GZR1 whole entry): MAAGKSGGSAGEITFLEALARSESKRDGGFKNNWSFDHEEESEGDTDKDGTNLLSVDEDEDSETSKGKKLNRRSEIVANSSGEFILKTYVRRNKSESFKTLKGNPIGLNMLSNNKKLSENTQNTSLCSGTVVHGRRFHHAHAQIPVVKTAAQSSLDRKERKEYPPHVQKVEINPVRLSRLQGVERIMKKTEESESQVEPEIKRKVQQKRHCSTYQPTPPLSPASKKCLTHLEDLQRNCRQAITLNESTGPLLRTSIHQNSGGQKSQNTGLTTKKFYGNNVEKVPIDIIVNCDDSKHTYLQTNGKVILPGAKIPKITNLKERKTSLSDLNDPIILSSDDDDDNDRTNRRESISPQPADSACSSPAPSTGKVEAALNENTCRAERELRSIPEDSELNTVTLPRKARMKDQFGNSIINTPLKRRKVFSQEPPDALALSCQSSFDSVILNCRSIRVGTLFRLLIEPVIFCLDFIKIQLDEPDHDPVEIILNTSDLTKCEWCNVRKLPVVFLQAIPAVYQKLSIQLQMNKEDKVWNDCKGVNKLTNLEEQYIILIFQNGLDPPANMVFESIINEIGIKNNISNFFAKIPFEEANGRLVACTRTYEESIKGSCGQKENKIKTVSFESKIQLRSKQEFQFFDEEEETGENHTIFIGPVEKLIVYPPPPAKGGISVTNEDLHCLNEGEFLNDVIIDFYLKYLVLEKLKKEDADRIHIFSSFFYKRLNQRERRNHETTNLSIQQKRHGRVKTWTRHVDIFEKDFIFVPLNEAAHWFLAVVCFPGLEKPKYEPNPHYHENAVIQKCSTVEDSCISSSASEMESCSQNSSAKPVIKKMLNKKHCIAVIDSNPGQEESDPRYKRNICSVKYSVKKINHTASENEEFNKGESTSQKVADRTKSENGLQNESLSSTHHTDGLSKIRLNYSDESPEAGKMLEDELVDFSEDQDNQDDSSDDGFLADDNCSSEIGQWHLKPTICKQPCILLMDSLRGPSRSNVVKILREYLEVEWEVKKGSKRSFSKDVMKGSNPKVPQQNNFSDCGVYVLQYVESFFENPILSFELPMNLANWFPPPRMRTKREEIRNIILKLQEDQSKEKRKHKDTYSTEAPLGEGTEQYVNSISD
# [12] = target: T6, Sentrin-specific protease 8 (Homo sapiens, UniProt Q96LD8); format: functional;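 further: luminescence read-out of SENP8 inhibition, dose-response confirmation following an ultra-high-throughput screen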
# T6 sequence (Q96LD8 whole entry): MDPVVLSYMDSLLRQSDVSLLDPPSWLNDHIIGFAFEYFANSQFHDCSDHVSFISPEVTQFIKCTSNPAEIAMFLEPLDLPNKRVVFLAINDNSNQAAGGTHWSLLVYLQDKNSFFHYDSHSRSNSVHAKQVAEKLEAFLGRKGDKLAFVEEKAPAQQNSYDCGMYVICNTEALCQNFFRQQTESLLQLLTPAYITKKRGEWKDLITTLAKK
# [13] = P. falciparum 3D7-ScDHODH growth inhibitors, dose response, SYBR Green, dry powder samples (AID 1159570); format: functional, cell-based;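 further: parasite growth measured after 72 hours of compound exposure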
# [14] = HepG2 cell cytotoxicity, dose response, cytotoxicity control, plate reader, dry powder samples (AID 1159569); format: functional, cell-based;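 further: inhibitor potency with signal falling toward the positive control level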
# [15] = P. falciparum ATP4 D1247Y mutant growth inhibitors, dose response, NITD609-resistant line, SYBR Green, dry powder (AID 1159571); format: functional, cell-based;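 further: parasites synchronized at ring stage by sorbitol before testing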
# [16] = P. falciparum Dd2 growth inhibitors, dose response, SYBR Green, cherry-picked samples (AID 1159567); format: functional, cell-based
# [17] = A549 cell cytotoxicity, dose response, cytotoxicity control, plate reader, cherry-pick, antagonist series (AID 743412); format: functional, cell-based
# [18] = P. falciparum Dd2 growth inhibitors, dose response, SYBR Green, dry powder samples (AID 1159566); format: functional, cell-based;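 further: potency for growth inhibition with lower SYBR green DNA signal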
# [19] = MC4R antagonists, dose response, counter-screen for LGR2 antagonist project, cell-based, plate reader, cherry pick (AID 743444); format: functional;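 further: transfected HEK 293 cells stimulated with alpha-MSH peptide; potency of inhibitors of the alpha-MSH evoked signal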
# [20] = LGR2 antagonists, dose response, cell-based, HEK293, CRE-luciferase reporter, cherry pick, set 2 (AID 743343); format: functional;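 further: transfected cells were stimulated with diluted bursicon conditioned medium after compound addition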
# Sequence of G-protein coupled receptor 183 (P32249 whole entry): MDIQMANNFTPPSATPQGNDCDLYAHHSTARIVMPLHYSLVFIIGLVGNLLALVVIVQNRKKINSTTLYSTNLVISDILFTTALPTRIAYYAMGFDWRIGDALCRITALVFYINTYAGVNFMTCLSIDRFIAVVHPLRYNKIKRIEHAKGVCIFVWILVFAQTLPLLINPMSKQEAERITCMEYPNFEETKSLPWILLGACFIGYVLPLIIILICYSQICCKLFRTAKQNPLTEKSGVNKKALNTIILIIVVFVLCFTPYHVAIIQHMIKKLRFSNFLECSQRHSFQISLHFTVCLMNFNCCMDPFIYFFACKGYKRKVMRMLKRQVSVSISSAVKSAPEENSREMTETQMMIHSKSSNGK
# Sequence of Kallikrein-7 (P49862 whole entry): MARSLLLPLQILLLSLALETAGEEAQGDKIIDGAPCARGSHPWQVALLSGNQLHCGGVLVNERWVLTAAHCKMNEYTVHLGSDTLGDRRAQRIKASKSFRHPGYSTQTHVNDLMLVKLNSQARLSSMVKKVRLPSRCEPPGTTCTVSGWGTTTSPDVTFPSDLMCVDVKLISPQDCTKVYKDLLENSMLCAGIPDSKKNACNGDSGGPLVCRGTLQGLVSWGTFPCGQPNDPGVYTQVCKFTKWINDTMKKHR
# Sequence of Paired box protein Pax-8 (Q06710 whole entry): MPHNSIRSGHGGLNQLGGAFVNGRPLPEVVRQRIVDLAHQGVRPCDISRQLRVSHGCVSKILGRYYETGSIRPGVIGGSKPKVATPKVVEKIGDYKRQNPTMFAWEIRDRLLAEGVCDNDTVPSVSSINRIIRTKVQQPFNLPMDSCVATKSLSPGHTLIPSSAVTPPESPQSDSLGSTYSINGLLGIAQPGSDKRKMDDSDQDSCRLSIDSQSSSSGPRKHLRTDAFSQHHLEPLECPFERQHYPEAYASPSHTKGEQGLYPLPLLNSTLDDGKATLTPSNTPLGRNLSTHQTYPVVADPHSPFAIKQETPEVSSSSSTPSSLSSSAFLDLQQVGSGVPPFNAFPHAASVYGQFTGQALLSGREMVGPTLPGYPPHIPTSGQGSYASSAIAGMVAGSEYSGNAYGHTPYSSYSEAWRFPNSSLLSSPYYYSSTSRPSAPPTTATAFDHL
compound,measurement,setting,value
COc1ccccc1C(=O)NC(=O)Nc1cccc(Cl)c1,EC50,cells,> 67.5 µM (inactive)
same,EC50,[1],> 67.5 µM (inactive)
Cc1ccc(C)n1-c1sc2c(c1C#N)CCC(C)C2 (centres undefined),EC50,Streptococcus,> 150 µM (not active)
same,IC50,[2],> 83.3 µM (inactive)
same,IC50,[3],> 109 µM (inactive)
same,EC50,Streptokinase A,14.6 µM (active)
same,EC50,[4],7.14 µM (active)
Cc1ccc(S(=O)(=O)N(C)C[C@@H]2Oc3cc(C#Cc4ccncc4)ccc3S(=O)(=O)N([C@H](C)CO)C[C@H]2C)cc1,AC50,[5],3.54 µM (active)
same,AC50,Paired box protein Pax-8,3.3 µM (active)
same,AC50,[6],3.13 µM (active)
same,AC50,[7],> 70 µM (inactive)
O=C1Nc2ccccc2N=C(c2ccccc2)C1N(Cc1ccc(F)cc1)C(=O)c1cccnc1 (centres undefined),AC50,[5],36.7 µM (active)
CN(C)CCNS(=O)(=O)c1ccc2c3c(cccc13)C(=O)N2,EC50,Kallikrein-7,1.83 µM (active)
Cc1ccc(C(=O)N2CCN(C(=O)/C=C/c3ccc(Br)cc3)CC2)cc1,IC50,[8],1.02 nM (active)
C[C@@H]1CN([C@H](C)CO)C(=O)c2cccc(NC(=O)c3ccc(-c4nccs4)cc3)c2O[C@@H]1CN(C)C(=O)Nc1ccc(C(F)(F)F)cc1,AC50,[9],886 nM (active)
CCOC(=O)/C(=N\Nc1ncnc2ccccc12)c1ccc(C)cc1,IC50,Caspase-3,32.9 µM (active)
same,IC50,[10],6.78 µM (active)
same,EC50,cells,> 67.6 µM (inactive)
same,IC50,[11],11.7 µM (active)
same,EC50,[1],> 67.6 µM (inactive)
same,IC50,[12],13.4 µM (active)
COc1cc(CCC(C)=O)ccc1OC(=O)c1c(F)cccc1Cl,IC50,[2],> 83.2 µM (inactive)
same,IC50,[3],> 109 µM (inactive)
C[C@H](CO)N1C[C@H](C)[C@H](CN(C)S(=O)(=O)c2ccc(C(F)(F)F)cc2)OCc2ccccc2-c2c(n(C)c3ccccc23)C1=O,AC50,[13],155 nM (active)
same,AC50,[14],25.7 µM (active)
same,AC50,[9],293 nM (active)
same,AC50,[15],152 nM (active)
same,AC50,[16],427 nM (active)
same,AC50,[17],19.8 µM (active)
same,AC50,[18],117 nM (active)
same,AC50,[19],28.9 µM (active)
same,AC50,[20],27.3 µM (active)
CCOC(=O)N1CCC2(CC1)CC(=O)c1c(ccc3oc(C(=O)O)c(C)c13)O2,EC50,Kallikrein-7,97.5 µM (inactive)
O=C(/C=C/c1ccc(F)cc1)N1CCN(S(=O)(=O)c2ccccc2Br)CC1,IC50,[8],8.01 nM (active)
